Legend:
Conditions in all cases: incubation time: 72 h
CAL-120 [1] = assay: normalised response (% of control), CellTox Green; higher = less cell death (100 = DMSO, 0 = benzethonium chloride kill control)
Method in brief: (§1)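 Breast cancer cell lines were exposed for 72 h in 384-well plates to compound at 5 concentrations, 10-fold apart, covering a 10,000-fold range fixed for each compound. Plates were read for CellTox Green fluorescence and CellTiter-Glo luminescence and normalised to 0.1 % DMSO (100) and a positive kill control (0). Each value is the normalised signal at one concentration of the series.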

CAL-148 [2] = assay: as above
Method in brief: as §1

HCC1937 [3] = assay: as above
Method in brief: as §1

HDQ-P1 [4] = assay: as above
Method in brief: as §1

MDA-MB-231 [5] = assay: as above
Method in brief: as §1

BT-474 = assay: as above
Method in brief: as §1

CAL-51 [6] = assay: as above
Method in brief: as §1

CAL-85-1 [7] = assay: as above
Method in brief: as §1

HCC1599 [8] = assay: as above
Method in brief: as §1

MFM-223 [9] = assay: as above
Method in brief: as §1

HCC1143 [10] = assay: as above
Method in brief: as §1

CAL-120 [11] = assay: drug sensitivity score (DSS), CellTox Green (DSS (AUC-based score)); higher = stronger drug effect (viability inhibition or cytotoxicity); extreme values may be limits of the assay
Method in brief: (§2)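 Compound was dispensed into 384-well plates at 5 concentrations in 10-fold steps spanning a 10,000-fold range chosen for each compound, and 20 µl of breast cancer cell suspension was added before 72 h of incubation. CellTox Green fluorescence was read at 485/520 nm, followed by CellTiter-Glo luminescence after 10 min at room temperature. Values on each plate were normalised to 0.1 % DMSO and a positive kill control. The drug sensitivity score came from the area under the fitted dose-response curve.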

CAL-148 [12] = assay: as above
Method in brief: as §2

Hs578T = assay: as above
Method in brief: as §2

HCC1937 [13] = assay: as above
Method in brief: as §2

HDQ-P1 [14] = assay: as above
Method in brief: as §2

MDA-MB-231 [15] = assay: as above
Method in brief: as §2

MDA-MB-436 = assay: as above
Method in brief: as §2

MDA-MB-453 = assay: as above
Method in brief: as §2

MDA-MB-468 = assay: as above
Method in brief: as §2

CAL-51 [16] = assay: as above
Method in brief: as §2

CAL-85-1 [17] = assay: as above
Method in brief: as §2

HCC1599 [18] = assay: as above
Method in brief: as §2

MCF-10A = assay: as above
Method in brief: as §2

MFM-223 [19] = assay: as above
Method in brief: as §2

DU-4475 = assay: as above
Method in brief: as §2

HCC1143 [20] = assay: as above
Method in brief: as §2

COCC1(CO)C(=O)C2CCN1CC2 (stereo not drawn) [Prima-1 Met] (1000 nM)
normalised response (CAL-120 [1]): 99.5% | normalised response (CAL-148 [2]): 71.1% | normalised response (HCC1937 [3]): 120% | normalised response (HDQ-P1 [4]): 101% | normalised response (MDA-MB-231 [5]): 98.3% | normalised response (BT-474): 104% | normalised response (CAL-51 [6]): 111% | normalised response (CAL-85-1 [7]): 102% | normalised response (HCC1599 [8]): 109% | normalised response (MFM-223 [9]): 89.9% | normalised response (HCC1143 [10]): 114%

CNC(=O)c1ccc(N2C(=S)N(c3ccc(C#N)c(C(F)(F)F)c3)C(=O)C23CCC3)cc1F [RD162]
drug sensitivity score (CAL-120 [11]): 0 | drug sensitivity score (CAL-148 [12]): 0 | drug sensitivity score (Hs578T): 0 | drug sensitivity score (HCC1937 [13]): 0 | drug sensitivity score (HDQ-P1 [14]): 0 | drug sensitivity score (MDA-MB-231 [15]): 0 | drug sensitivity score (MDA-MB-436): 0 | drug sensitivity score (MDA-MB-453): 0 | drug sensitivity score (MDA-MB-468): 0 | drug sensitivity score (CAL-51 [16]): 0 | drug sensitivity score (CAL-85-1 [17]): 0 | drug sensitivity score (HCC1599 [18]): 0 | drug sensitivity score (MCF-10A): 0 | drug sensitivity score (MFM-223 [19]): 0 | drug sensitivity score (DU-4475): 0

CNC(=O)c1cc(Oc2ccc(NC(=O)Nc3ccc(Cl)c(C(F)(F)F)c3)c(F)c2)ccn1 [Regorafenib] (10000 nM)
normalised response (CAL-120 [1]): 97.2% | normalised response (CAL-148 [2]): 85.1% | normalised response (HCC1937 [3]): 10.5% | normalised response (HDQ-P1 [4]): 111% | normalised response (MDA-MB-231 [5]): 94.3% | normalised response (BT-474): 82% | normalised response (CAL-51 [6]): 108% | normalised response (CAL-85-1 [7]): 83.8% | normalised response (HCC1599 [8]): 106% | normalised response (MFM-223 [9]): 97.3% | normalised response (HCC1143 [10]): 120%

CO[C@H]1C[C@@H]2CC[C@@H](C)[C@@](O)(O2)C(=O)C(=O)N2CCCC[C@H]2C(=O)O[C@H]([C@H](C)C[C@@H]2CC[C@@H](OP(C)(C)=O)[C@H](OC)C2)CC(=O)[C@H](C)/C=C(\C)[C@@H](O)[C@@H](OC)C(=O)[C@H](C)C[C@H](C)/C=C/C=C/C=C/1C [Ridaforolimus] (100 nM)
normalised response (CAL-120 [1]): 106% | normalised response (CAL-148 [2]): 85.5% | normalised response (HCC1937 [3]): 103% | normalised response (HDQ-P1 [4]): 70.1% | normalised response (MDA-MB-231 [5]): 51.6% | normalised response (BT-474): 100% | normalised response (CAL-51 [6]): 102% | normalised response (CAL-85-1 [7]): 92.7% | normalised response (HCC1599 [8]): 89.3% | normalised response (MFM-223 [9]): 102% | normalised response (HCC1143 [10]): 121%

c1ccc2c(CCNc3ccc(Nc4ccncc4)cc3)c[nH]c2c1 [Serdemetan] (10000 nM)
normalised response (CAL-120 [1]): 88.8% | normalised response (CAL-148 [2]): 26% | normalised response (HCC1937 [3]): 102% | normalised response (HDQ-P1 [4]): 88.7% | normalised response (MDA-MB-231 [5]): 46.1% | normalised response (BT-474): 56.7% | normalised response (CAL-51 [6]): 69.5% | normalised response (CAL-85-1 [7]): 94% | normalised response (HCC1599 [8]): 82.8% | normalised response (MFM-223 [9]): 38.8% | normalised response (HCC1143 [10]): 89.7%

S=P(N1CC1)(N1CC1)N1CC1 [Thio-TEPA]
drug sensitivity score (CAL-120 [11]): 0 | drug sensitivity score (CAL-148 [12]): 0 | drug sensitivity score (Hs578T): 3.7 | drug sensitivity score (HCC1937 [13]): 0 | drug sensitivity score (HDQ-P1 [14]): 0 | drug sensitivity score (MDA-MB-231 [15]): 0 | drug sensitivity score (MDA-MB-436): 0 | drug sensitivity score (MDA-MB-453): 0 | drug sensitivity score (MDA-MB-468): 0 | drug sensitivity score (CAL-85-1 [17]): 0 | drug sensitivity score (HCC1599 [18]): 0 | drug sensitivity score (MCF-10A): 0 | drug sensitivity score (MFM-223 [19]): 0 | drug sensitivity score (DU-4475): 0

CN(C)CCOc1ccc(/C(=C(/CCCl)c2ccccc2)c2ccccc2)cc1 [Toremifene]
drug sensitivity score (CAL-120 [11]): 0 | drug sensitivity score (CAL-148 [12]): 0 | drug sensitivity score (Hs578T): 0 | drug sensitivity score (HCC1937 [13]): 5.17 | drug sensitivity score (HDQ-P1 [14]): 0 | drug sensitivity score (MDA-MB-436): 0 | drug sensitivity score (MDA-MB-453): 0 | drug sensitivity score (MDA-MB-468): 4.22 | drug sensitivity score (CAL-51 [16]): 0 | drug sensitivity score (CAL-85-1 [17]): 0 | drug sensitivity score (HCC1599 [18]): 0 | drug sensitivity score (MCF-10A): 0 | drug sensitivity score (MFM-223 [19]): 0 | drug sensitivity score (HCC1143 [20]): 2.33 | drug sensitivity score (DU-4475): 0

CC(C)C[C@@H](C(=O)N[C@H](C(=O)OC1CCCC1)c1ccccc1)[C@H](O)C(=O)NO [Tosedostat] (1000 nM)
normalised response (CAL-120 [1]): 39.9% | normalised response (CAL-148 [2]): 84.1% | normalised response (HCC1937 [3]): 90.1% | normalised response (HDQ-P1 [4]): 57.9% | normalised response (MDA-MB-231 [5]): 14.7% | normalised response (BT-474): 91.7% | normalised response (CAL-51 [6]): 52.9% | normalised response (CAL-85-1 [7]): 1.91% | normalised response (HCC1599 [8]): 90.8% | normalised response (MFM-223 [9]): 31.9% | normalised response (HCC1143 [10]): 105%

CC(C)C[C@@H](C(=O)N[C@H](C(=O)OC1CCCC1)c1ccccc1)[C@H](O)C(=O)NO [Tosedostat] (10000 nM)
normalised response (CAL-120 [1]): 36.2% | normalised response (CAL-148 [2]): 54.2% | normalised response (HCC1937 [3]): 76.8% | normalised response (HDQ-P1 [4]): 26% | normalised response (MDA-MB-231 [5]): -8.96% | normalised response (BT-474): 66.9% | normalised response (CAL-51 [6]): 48.5% | normalised response (CAL-85-1 [7]): -30.8% | normalised response (HCC1599 [8]): 95.4% | normalised response (MFM-223 [9]): 98.5% | normalised response (HCC1143 [10]): 30.3%

COc1cc2/c(=N/c3ccc(Br)cc3F)nc[nH]c2cc1OCC1CCN(C)CC1 [Vandetanib] (1000 nM)
normalised response (CAL-120 [1]): 56.3% | normalised response (CAL-148 [2]): 99.8% | normalised response (HCC1937 [3]): 84.1% | normalised response (HDQ-P1 [4]): 40.1% | normalised response (MDA-MB-231 [5]): 80.5% | normalised response (BT-474): 96.7% | normalised response (CAL-51 [6]): 96.5% | normalised response (CAL-85-1 [7]): 117% | normalised response (HCC1599 [8]): 106% | normalised response (MFM-223 [9]): 95% | normalised response (HCC1143 [10]): 85.7%

COCC[n+]1c2c(n(Cc3cnccn3)c1C)C(=O)c1ccccc1C2=O [YM155] (1000 nM)
normalised response (CAL-120 [1]): -14.7% | normalised response (CAL-148 [2]): -7.66% | normalised response (HCC1937 [3]): 9.52% | normalised response (HDQ-P1 [4]): -26.1% | normalised response (MDA-MB-231 [5]): -31.1% | normalised response (BT-474): -1.55% | normalised response (CAL-51 [6]): 4.79% | normalised response (CAL-85-1 [7]): -94.7% | normalised response (HCC1599 [8]): 51.1% | normalised response (MFM-223 [9]): 55.1% | normalised response (HCC1143 [10]): 49.3%

COCC[n+]1c2c(n(Cc3cnccn3)c1C)C(=O)c1ccccc1C2=O [YM155] (10000 nM)
normalised response (CAL-120 [1]): -11.6% | normalised response (CAL-148 [2]): 2.48% | normalised response (HCC1937 [3]): 1.09% | normalised response (HDQ-P1 [4]): 25.1% | normalised response (MDA-MB-231 [5]): 29.1% | normalised response (BT-474): -15% | normalised response (CAL-51 [6]): 8.9% | normalised response (CAL-85-1 [7]): -73.8% | normalised response (HCC1599 [8]): 55.7% | normalised response (MFM-223 [9]): 25.7% | normalised response (HCC1143 [10]): 62.8%

Reference: the supplement of paper PMC4862054
